Assay results: patent publication US12186283B2, “Bismuth-thiol compositions and methods of use” (Microbion Corporation, priority 2018, dated 2025)
≈ marks a conversion by molar mass, not a printed value. Like-named read-outs stand apart in the source and are kept apart here. Marks after values point to notes of the source that are not given here.

How the values were obtained:
[1] = system: M. abscessus / MABSC biofilms; assay type: cell-based, Mycobacterium abscessus complex; details: AMT0130-8, MABSC CF-isolate
S. aureus ATCC 29213 [2] = assay: Broth microdilution MIC, QC organism (Example 13, Table 110); assay type: cell-based, Staphylococcus aureus
Text: (§1) MECs were only reported where observed.

[3] = system: Staphylococcus aureus (MRSA); assay: Broth microdilution MIC (Example 11); assay type: cell-based; details: MRSA, LevR, CipR, EryR, OxR
S. aureus ATCC 29213 [4] = details: control strain ATCC 29213 S. aureus; per CLSI M100-S24 or provided by Microbion; cited from earlier work
[5] = system: Pseudomonas aeruginosa strain PA01; assay: Bacterial killing curves with and without 10% CF patient sputum; details: for bactericidal activity: PA01, 0.1 μg/mL; for effect of CF patient sputum on bactericidal activity: PA01, 10% CF patient sputum
Aspergillus spp. = assay: Broth microdilution MIC/MEC, mold (Example 13); assay type: cell-based; details: for MEC (minimum effective concentration): read-out: MEC at 48 hr (MIC0 not observed)
E. coli ATCC 25922 [6] = assay: Broth microdilution MIC, QC organism (Example 13, Table 110); assay type: cell-based, Escherichia coli
Text: as §1

Enterobacteriaceae = assay: Broth microdilution MIC (Example 11), group statement; assay type: cell-based; details: ATCC QC E. coli, ESBL-, KPC- and NDM-1-positive isolates
Pseudomonas aeruginosa = details: P. aeruginosa ATCC 27853, QC organism; cited from earlier work
P. aeruginosa [7] = details: P. aeruginosa isolate 103, CLSI QC range in parenthesis, cited from earlier work
Escherichia coli = details: cited from earlier work
E. coli ATCC 25922 [8] = details: CLSI established QC range; cited from earlier work
[9] = system: Burkholderia cepacia complex; assay: Checkerboard FIC assay, BisEDT with CF agents (Example 10); assay type: cell-based, Burkholderia spp.; details: agent alone, as observed during FIC testing
[10] = system: Burkholderia cepacia complex; assay: Broth microdilution MIC (Example 10); details: initial MIC testing
P. aeruginosa [11] = assay: Broth microdilution MIC (Example 10)
P. aeruginosa [12] = assay: Checkerboard FIC assay, BisEDT with CF agents (Example 10); assay type: cell-based, Pseudomonas aeruginosa; details: agent alone, as observed during FIC testing
[13] = E. coli ATCC 25922, QC organism

CC(S)C(C)S.[Bi] (centres unmarked) [BisBDT, bismuth-2,3-butanedithiol]
reduction in biofilm cell viability [1]: only very modest reductions in biofilm cell viability | MIC 24 hr (S. aureus ATCC 29213 [2]): 1^a | MIC ([3]; S. aureus MMX 5373, CCR): ≤0.06 µg/mL | MIC ([3]; S. aureus MMX 6311, CCR): ≤0.06 µg/mL | MIC ([3]; S. aureus MMX 9204): ≤0.06 µg/mL | MIC ([3]; S. aureus MMX 9205, CCR): ≤0.06 µg/mL | Expected MIC: goal (S. aureus ATCC 29213 [4]): 0.25 µg/mL | bactericidal activity [5]: not bactericidal | more surviving in cultures with sputum ([5]; PA01, 4 μg/mL, 10% CF sputum, 3-6 hours): 0.5-0.8 log CFU/mL | killing over the assay ([5]; PA01, 4 μg/mL, absence of sputum, 6 hour assay): about 1 log | time to sterilization below the limit of detection ([5]; PA01, 20 μg/mL, with and without sputum): ≤ 5 h | effect of CF patient sputum on bactericidal activity [5]: partially inhibited | MIC (Aspergillus spp.; 24 h, A. flavus ATCC 22546, 24 hr, read-out: MIC0 24 hr (complete inhibition)): 1 µg/mL | MIC (Aspergillus spp.; 24 h, A. flavus ATCC 204304, 24 hr, read-out: MIC0 24 hr (complete inhibition)): 4 µg/mL | MIC (Aspergillus spp.; 24 h, A. flavus MMX 7935, 24 hr, read-out: MIC0 24 hr (complete inhibition)): 8 µg/mL | MIC (Aspergillus spp.; 24 h, A. fumigatus ATCC 204305, 24 hr, read-out: MIC0 24 hr (complete inhibition)): 8 µg/mL | MIC (Aspergillus spp.; 24 h, A. fumigatus ATCC MYA-3626, 24 hr, read-out: MIC0 24 hr (complete inhibition)): 2 µg/mL | MIC (Aspergillus spp.; 24 h, A. fumigatus MMX 5934, 24 hr, read-out: MIC0 24 hr (complete inhibition)): 2 µg/mL | MIC (Aspergillus spp.; 24 h, A. fumigatus MMX 5939, 24 hr, read-out: MIC0 24 hr (complete inhibition)): 2 µg/mL | MIC (Aspergillus spp.; 24 h, read-out: MIC0 24 hr (complete inhibition), A. terreus MMX 8229, 24 hr): 0.25 µg/mL | MIC (Aspergillus spp.; 48 h, A. flavus ATCC 22546, 48 hr, read-out: MIC0 48 hr (complete inhibition)): 2 µg/mL | MEC (minimum effective concentration) (Aspergillus spp.; 48 h, A. flavus ATCC 204304, 48 hr): 4 µg/mL | MIC (Aspergillus spp.; 48 h, A. flavus MMX 7935, 48 hr, read-out: MIC0 48 hr (complete inhibition)): 8 µg/mL | MEC (minimum effective concentration) (Aspergillus spp.; 48 h, A. fumigatus ATCC 204305, 48 hr): 4 µg/mL | MIC (Aspergillus spp.; 48 h, A. fumigatus ATCC MYA-3626, 48 hr, read-out: MIC0 48 hr (complete inhibition)): 4 µg/mL | MEC (minimum effective concentration) (Aspergillus spp.; 48 h, A. fumigatus MMX 5934, 48 hr): 4 µg/mL | MEC (minimum effective concentration) (Aspergillus spp.; 48 h, A. fumigatus MMX 5939, 48 hr): 4 µg/mL | MIC (Aspergillus spp.; 48 h, A. terreus MMX 8229, 48 hr, read-out: MIC0 48 hr (complete inhibition)): 1 µg/mL | MIC 24 hr (Aspergillus spp.; A. flavus ATCC 204304 (QC, Table 110), 24 hr): 4 µg/mL | MIC 48 hr, marked with footnote c (Aspergillus spp.; A. flavus ATCC 204304 (QC, Table 110), 48 hr, footnote c not given, probably MEC): 4^c | MIC 24 hr (Aspergillus spp.; A. fumigatus ATCC MYA-3626 (QC, Table 110), 24 hr): 2 µg/mL | MIC 48 hr (Aspergillus spp.; A. fumigatus ATCC MYA-3626 (QC, Table 110), 48 hr): 4 µg/mL | MIC (Aspergillus spp.; read-out: MIC0 48 hr (complete inhibition)): 2 µg/mL | MIC 24 hr (E. coli ATCC 25922 [6]): 0.5^a | MIC values (range across isolates) (Enterobacteriaceae): 0.5 to 2 µg/mL

C1C[S][Bi]([S]CC[S][Bi]2[S]CC[S]2)[S]1 [BisEDT, bismuth-1,2-ethanedithiol]
MIC, QC range (Pseudomonas aeruginosa): (0.5-4) μg/mL | MIC, CLSI QC range (P. aeruginosa [7]; Table 24): (0.5-4)^2 μg/mL | MIC, CLSI QC range (P. aeruginosa [7]; Table 26): (0.5-4) μg/mL | Expected MIC: goal (S. aureus ATCC 29213 [4]): 0.25 to 0.5 µg/mL | bactericidal activity [5]: not bactericidal | effect of CF patient sputum on bactericidal activity [5]: partially inhibited | MIC, QC range (Escherichia coli; [13]): (0.5-4)^1 μg/mL | QC Range 24 hr (E. coli ATCC 25922 [8]): 0.5-4

C[C@@H](O)[C@H]1C(=O)N2C(C(=O)O)=C(S[C@@H]3CN[C@H](C(=O)N(C)C)C3)[C@H](C)[C@H]12 [MEM]
MIC, QC range (Pseudomonas aeruginosa): (0.12-1) μg/mL | MIC ([9]; B. cenocepacia isolate 0548): 4 µg/mL | MIC ([9]; B. cenocepacia isolate 0813): 2 µg/mL | MIC ([9]; B. cepacia isolate 0546): 4 µg/mL | MIC ([9]; B. cepacia isolate 1793): 4 µg/mL | MIC ([9]; B. multivorans isolate 1795): 4 µg/mL | MIC, CLSI QC range (P. aeruginosa [7]; Table 24): (0.12-1) μg/mL | MIC, CLSI QC range (P. aeruginosa [7]; Table 26): (0.12-1) μg/mL | MIC, QC range (Escherichia coli; [13]): (0.008-0.06) μg/mL | MIC, QC range (Escherichia coli; E. coli ATCC 35218, QC organism): (0.008-0.06) μg/mL | MIC ([10]; B. cenocepacia isolate 0548 (CIP-R)): 4 µg/mL (≈ 10.4 µM) | MIC ([10]; B. cenocepacia isolate 0813 (CPI-I)): 2 µg/mL (≈ 5.22 µM) | MIC ([10]; B. cenocepacia isolate 1631): 4 µg/mL (≈ 10.4 µM) | MIC ([10]; B. cenocepacia isolate 1783): 4 µg/mL (≈ 10.4 µM) | MIC ([10]; B. cenocepacia isolate 8555): 4 µg/mL (≈ 10.4 µM) | MIC ([10]; B. cepacia isolate 0546): 4 µg/mL (≈ 10.4 µM) | MIC ([10]; B. cepacia isolate 0547): 2 µg/mL (≈ 5.22 µM) | MIC ([10]; B. cepacia isolate 1793): 4 µg/mL (≈ 10.4 µM) | MIC ([10]; B. cepacia isolate 1794): 4 µg/mL (≈ 10.4 µM) | MIC ([10]; B. cepacia isolate 9040): 4 µg/mL (≈ 10.4 µM) | MIC ([10]; B. multivorans isolate 1580 (CIP-R)): 2 µg/mL (≈ 5.22 µM) | MIC ([10]; B. multivorans isolate 1791): 4 µg/mL (≈ 10.4 µM) | MIC ([10]; B. multivorans isolate 1795 (MEM-I, CIP-R)): 8 µg/mL (≈ 20.9 µM) | MIC ([10]; B. multivorans isolate 5665 (CIP-I)): 2 µg/mL (≈ 5.22 µM) | MIC ([10]; B. multivorans isolate 8952 (CIP-I)): 2 µg/mL (≈ 5.22 µM) | MIC (P. aeruginosa [11]; P. aeruginosa isolate 103 (ATCC 25922), QC strain, initial MIC testing): 1 µg/mL (≈ 2.61 µM) | MIC (P. aeruginosa [11]; P. aeruginosa isolate 103 (ATCC 25922), during FIC testing, each agent tested alone for QC, one replicate): 1 µg/mL | MIC (P. aeruginosa [11]; P. aeruginosa isolate 1497 (TOB-R, AMK-R, CIP-I, AZT-R, COL-R), initial MIC testing): 0.06 µg/mL (≈ 0.156 µM) | MIC (P. aeruginosa [11]; P. aeruginosa isolate 1530 (TOB-R, AMK-R, CIP-R), initial MIC testing): 0.5 µg/mL (≈ 1.3 µM) | MIC (P. aeruginosa [11]; P. aeruginosa isolate 1553 (TOB-R, AMK-R, CIP-R), initial MIC testing): 0.5 µg/mL (≈ 1.3 µM) | MIC (P. aeruginosa [11]; P. aeruginosa isolate 6322 (MEM-R, TOB-R, AMK-R, CIP-R, AZT-R), initial MIC testing): 16 µg/mL (≈ 41.7 µM) | MIC (P. aeruginosa [11]; P. aeruginosa isolate 6977 (MEM-I, TOB-R, CIP-R, AZT-I), initial MIC testing): 4 µg/mL (≈ 10.4 µM) | MIC (P. aeruginosa [11]; P. aeruginosa isolate 7745 (MEM-R, CIP-R, AZT-R), initial MIC testing): 16 µg/mL (≈ 41.7 µM) | MIC (P. aeruginosa [11]; P. aeruginosa isolate 7754 (MEM-R, TOB-R, CIP-R, AZT-I), initial MIC testing): 32 µg/mL (≈ 83.4 µM) | MIC (P. aeruginosa [11]; P. aeruginosa isolate 7762 (MEM-I, CIP-I), initial MIC testing): 4 µg/mL (≈ 10.4 µM) | MIC (P. aeruginosa [11]; P. aeruginosa isolate 7871 (MEM-R, AZT-I), initial MIC testing): 8 µg/mL (≈ 20.9 µM) | MIC (P. aeruginosa [11]; P. aeruginosa isolate 7874, initial MIC testing): 1 µg/mL (≈ 2.61 µM) | MIC (P. aeruginosa [11]; P. aeruginosa isolate 7886 (MEM-R, CIP-R, AZT-R), initial MIC testing): 32 µg/mL (≈ 83.4 µM) | MIC (P. aeruginosa [11]; P. aeruginosa isolate 8797 (MEM-R, TOB-R, AMK-R, CIP-R, AZT-R, COL-R), initial MIC testing): 32 µg/mL (≈ 83.4 µM) | MIC (P. aeruginosa [11]; P. aeruginosa isolate 8798 (MEM-R, TOB-R, AMK-R, CIP-R, AZT-R, COL-R), initial MIC testing): 64 µg/mL (≈ 167 µM) | MIC (P. aeruginosa [11]; P. aeruginosa isolate 9108 (CIP-R, AZT-I), initial MIC testing): 0.5 µg/mL (≈ 1.3 µM) | MIC (P. aeruginosa [12]; P. aeruginosa isolate 6322): 16 µg/mL | MIC (P. aeruginosa [12]; P. aeruginosa isolate 6977): 8 µg/mL | MIC (P. aeruginosa [12]; P. aeruginosa isolate 7745): 16 µg/mL | MIC (P. aeruginosa [12]; P. aeruginosa isolate 8798): 32 µg/mL | MIC (P. aeruginosa [12]; P. aeruginosa isolate 9108): 1 µg/mL
